Reference: ChEMBL document CHEMBL3808273, “Steroids from the rhizome of Anemarrhena asphodeloides and their cytotoxic activities” (Bioorg Med Chem Lett, 2016)

Columns and labels:
Bcap37 = test: Cytotoxicity against human Bcap37 cells assessed as growth inhibition after 48 hrs by MTT assay; format: functional, cell-based; conditions: Bcap37, 48 h
MCF7 = test: Cytotoxicity against human MCF7 cells assessed as growth inhibition after 48 hrs by MTT assay; format: functional, cell-based; conditions: MCF7, 48 h
A549 = test: Cytotoxicity against human A549 cells assessed as growth inhibition after 48 hrs by MTT assay; format: functional, cell-based; conditions: A549, 48 h
HepG2 = test: Cytotoxicity against human HepG2 cells assessed as growth inhibition after 48 hrs by MTT assay; format: functional, cell-based; conditions: HepG2, 48 h
[1] = Cytotoxicity against human Hep3B cells assessed as growth inhibition after 48 hrs by MTT assay; format: functional, cell-based, Hep 3B2

For `C[C@@H](CCC1(O)O[C@H]2C[C@H]3[C@@H]4CC[C@H]5C[C@@H](O)CC[C@]5(C)[C@H]4CC[C@]3(C)[C@H]2[C@@H]1C)CO[C@@H]1O[C@H](CO)[C@@H](O)[C@H](O)[C@H]1O` (some centres not stated), the IC50 (Bcap37) was > 50 µM, the IC50 (MCF7) was > 50 µM and the IC50 (A549) was > 50 µM. The IC50 (HepG2) was > 50 µM and the IC50 [1] was > 50 µM.

With `C[C@H]1CC[C@@]2(OC1)O[C@H]1C[C@H]3[C@@H]4CC[C@H]5C[C@@H](O)CC[C@]5(C)[C@H]4CC[C@]3(C)[C@H]1[C@@H]2C` the IC50 (Bcap37) was > 50 µM, the IC50 (MCF7) was > 50 µM and the IC50 (A549) was > 50 µM. The IC50 (HepG2) was > 50 µM and the IC50 [1] was > 50 µM.

For `C[C@@H]1C(=O)O[C@H]2C[C@H]3[C@@H]4CC[C@H]5C[C@@H](O)[C@@H](O)C[C@]5(C)[C@H]4CC[C@]3(C)[C@H]21`, the IC50 (Bcap37) was > 50 µM, the IC50 (MCF7) was > 50 µM and the IC50 (A549) was > 50 µM. For the same compound, the IC50 (HepG2) was > 50 µM and the IC50 [1] was > 50 µM.

Compound `C=C1CC[C@@]2(OC1)O[C@H]1C[C@H]3[C@@H]4CC[C@H]5C[C@@H](O[C@@H]6O[C@H](CO)[C@H](O)[C@H](O)[C@H]6O[C@@H]6O[C@H](CO)[C@@H](O)[C@H](O)[C@H]6O)CC[C@]5(C)[C@H]4CC[C@]3(C)[C@H]1[C@@H]2C` has an IC50 (Bcap37) of 7.72 µM, an IC50 (MCF7) of 13.1 µM and an IC50 (A549) of 5.62 µM. For the same compound, the IC50 (HepG2) was 6.47 µM and the IC50 [1] was 9.98 µM.

With `C[C@@H]1C(=O)O[C@H]2C[C@H]3[C@@H]4CC[C@H]5C[C@@H](O[C@@H]6O[C@H](CO)[C@H](O)[C@H](O)[C@H]6O[C@@H]6O[C@H](CO)[C@@H](O)[C@H](O)[C@H]6O)CC[C@]5(C)[C@H]4CC[C@]3(C)[C@H]21` the IC50 (Bcap37) was > 50 µM, the IC50 (MCF7) was > 50 µM and the IC50 (A549) was > 50 µM. For the same compound, the IC50 (HepG2) was > 50 µM and the IC50 [1] was > 50 µM.

For `CC(=O)C1=C[C@H](O)[C@H]2[C@@H]3CC[C@H]4C[C@@H](O[C@@H]5O[C@H](CO)[C@H](O)[C@H](O)[C@H]5O[C@@H]5O[C@H](CO)[C@@H](O)[C@H](O)[C@H]5O)CC[C@]4(C)[C@H]3CC[C@]12C`, the IC50 (Bcap37) was > 50 µM, the IC50 (MCF7) was > 50 µM and the IC50 (A549) was > 50 µM. For the same compound, the IC50 (HepG2) was > 50 µM and the IC50 [1] was > 50 µM.

In the case of `C[C@@H]1CC[C@]2(OC1)O[C@@H]1[C@@H](O)[C@@H]3[C@H]4CC[C@@H]5C[C@H](O[C@H]6O[C@@H](CO)[C@@H](O)[C@@H](O)[C@@H]6O[C@H]6O[C@@H](CO)[C@H](O)[C@@H](O)[C@@H]6O)CC[C@@]5(C)[C@@H]4CC[C@@]3(C)[C@@H]1[C@H]2C`, the IC50 (Bcap37) is reported as > 50 µM, the IC50 (MCF7) is reported as > 50 µM and the IC50 (A549) is reported as > 50 µM. For the same compound, the IC50 (HepG2) was > 50 µM and the IC50 [1] was > 50 µM.

With `C[C@@H]1CO[C@]2(O[C@@H]3C[C@@H]4[C@H]5CC[C@@H]6C[C@H](O[C@H]7O[C@@H](CO)[C@@H](O)[C@@H](O)[C@@H]7O[C@H]7O[C@@H](CO)[C@H](O)[C@@H](O)[C@@H]7O)CC[C@@]6(C)[C@@H]5CC[C@@]4(C)[C@@H]3[C@H]2C)[C@H](O)C1` the IC50 (Bcap37) was > 50 µM, the IC50 (MCF7) was > 50 µM and the IC50 (A549) was > 50 µM. The IC50 (HepG2) was > 50 µM and the IC50 [1] was > 50 µM.

With `C[C@@H]1CC[C@@]2(OC1)O[C@H]1C[C@H]3[C@@H]4CC[C@H]5C[C@@H](O[C@H]6O[C@@H](CO)[C@@H](O)[C@@H](O)[C@@H]6O[C@H]6O[C@@H](CO)[C@H](O)[C@@H](O)[C@@H]6O)[C@@H](O)C[C@]5(C)[C@H]4CC[C@]3(C)[C@H]1[C@@H]2C` the IC50 (Bcap37) was > 50 µM, the IC50 (MCF7) was > 50 µM and the IC50 (A549) was > 50 µM. The IC50 (HepG2) was > 50 µM and the IC50 [1] was > 50 µM.

Work on `C[C@H]1CC[C@@]2(OC1)O[C@H]1C[C@H]3[C@@H]4CC[C@H]5C[C@@H](O[C@@H]6O[C@H](CO)[C@H](O)[C@H](O)[C@H]6O[C@@H]6O[C@H](CO)[C@@H](O)[C@H](O)[C@H]6O)CC[C@]5(C)[C@H]4CC[C@]3(C)[C@H]1[C@@H]2C` yielded an IC50 (Bcap37) of 5.37 µM, an IC50 (MCF7) of 20.5 µM and an IC50 (A549) of 7.33 µM. It also gave an IC50 (HepG2) of 4.64 µM and an IC50 [1] of 0.35 µM.

Compound `C[C@H]1CC[C@@]2(OC1)O[C@H]1C[C@H]3[C@@H]4CC[C@H]5C[C@@H](OC6O[C@H](CO)[C@@H](O)[C@H](O)[C@@H]6O[C@@H]6O[C@H](CO)[C@@H](O)[C@H](O)[C@H]6O)CC[C@]5(C)[C@H]4CC[C@]3(C)[C@H]1[C@@H]2C` (some centres not stated) has an IC50 (Bcap37) of 9.5 µM, an IC50 (MCF7) of 25.5 µM and an IC50 (A549) of 8.42 µM. It also gave an IC50 (HepG2) of 6.42 µM and an IC50 [1] of 13.8 µM.

For `O=c1[nH]cc(F)c(=O)[nH]1` [FLUOROURACIL], the IC50 (Bcap37) was 5.18 µM and the IC50 [1] was 23 µM.
